Results published in US4822815A, “Dioxane hexenoic acids” (Imperial Chemical Industries PLC, priority 1985, dated 1989).

Legend:
TXA2 [1] = experiment: TXA2 antagonism in general (statement in words)
Source text: (§1) As stated earlier, the acids of formula I are antagonists of one or more of the actions of TXA2, for example certain of its actions on blood platelets, the vasculature and/or the lung.

[2] = test system: hypertensive effect of U46619; experiment: Test (d) hypertensive effect of U46619 in anaesthetised rats; type: in vivo, rat (Alderley Park strain)
Description: (d) Male rats (Alderley Park strain) are anaesthetised with sodium pentobarbital and blood pressure is monitored at the carotid artery. The TXA2 mimetic agent is administered intravenously via the jugular vein and an ED50 (dose necessary to produce 50% of the maximum hypertensive effect) is established (n=3). [The ED50 for U46619 is approximately 5 μg/kg.] A test compound is then administered either intravenously (via the jugular vein) or orally (via a cannula) directly into the stomach and the animal challenged with an ED50 dose of U46619, five minutes after dosing with test compound and then successively every ten minutes until the hypertensive effect of U46619 is no longer blocked.

[3] = molecular target: T1, U46619 stimulated platelet aggregation (Homo sapiens, UniProt P21731); experiment: Test (b) blood platelet aggregation test (human citrated platelet-rich plasma, U46619); type: cell-based; details: U46619 stimulated aggregation of human platelets; averaged over several concentrations
T1 construct: human, citrated, platelet-rich plasma; endogenous in cells; host or cells: human platelets in citrated platelet-rich plasma
T1 sequence (P21731 1-343): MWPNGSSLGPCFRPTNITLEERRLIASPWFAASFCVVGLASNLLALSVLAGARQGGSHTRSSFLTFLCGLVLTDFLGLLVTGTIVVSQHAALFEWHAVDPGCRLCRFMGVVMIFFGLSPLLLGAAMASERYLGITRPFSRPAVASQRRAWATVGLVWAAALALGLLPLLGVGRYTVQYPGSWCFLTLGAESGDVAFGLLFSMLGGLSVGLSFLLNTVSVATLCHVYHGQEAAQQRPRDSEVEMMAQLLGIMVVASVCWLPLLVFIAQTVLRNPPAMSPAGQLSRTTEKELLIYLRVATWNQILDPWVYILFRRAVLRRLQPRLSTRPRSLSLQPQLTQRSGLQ
Source text: (b) A blood platelet aggregation test based on that described by Born (Nature, 1962, 194, 927-929) and involving:
(i) aggregating human, citrated, platelet-rich plasma by addition of the TXA2 mimetic agent U46619 so that a dose-response curve is generated,
(ii) generating a dose-response curve for U46619 stimulated platelet aggregation in the presence of decreasing amounts of test compound (generally in the range 10^-5 M to 10^-10 M); and
(iii) calculating a KB value indicating potency of TXA2 antagonism for the test compound, averaged over several concentrations, from the calculated 50% response value for U46619 aggregation in the presence and absence of test compound; and […]

[4] = test system: U46619 induced bronchoconstriction; experiment: Test (c) bronchoconstriction test, Konzett-Rossler anaesthetised guinea-pig model; type: in vivo; details: 2 hours after oral dosing at 0.05 mg/kg
Source text: (c) a bronchoconstriction test involving measuring the inhibition by a test compound of the broncho-constriction induced in the Konzett-Rossler, anaesthetised guinea-pig model (as modified by Collier and James, Brit.J.Pharmacol., 1967, 30, 283-307) by intravenous administration of the TXA2 mimetic agent, U46619 and involving:
(i) obtaining a cumulative dose-response curve to U46619 induced bronchoconstriction by intravenous administration of constant volumes of increasing concentrations of U46619 (0.2-4 μg/kg) in physiological saline solution and expressing bronchoconstriction as the maximum of that theoretically obtainable with no air flow to the test animal;
(ii) generating a cumulative dose-response curve to U46619 induced bronchoconstriction at 30 minute intervals for 3 hours after oral dosing of test compound; and
(iii) calculating a dose-ratio for the test compound (that is the ratio of concentration of U46619 required to cause 50% bronchoconstriction in the presence and absence of test compound) indicating the potency of TXA2 antagonism.

TXA2 [5] = experiment: Test (a) rabbit aortal strip model, U46619 as agonist; type: cell-based; details: ±0.05
Description: as §1
(a) The rabbit aortal strip model devised by Piper and Vane (Nature, 1969, 223, 29-35) using as agonist a freshly prepared sample of TXA2, generated by addition of arachidonic acid (25 μg) to citrated, platelet rich rabbit plasma (250 μl) and allowing the mixture to aggregate fully over 90 seconds before use; alternatively the TXA2 mimetic agent known as U46619 (described by R L Jones et alia in "Chemistry, Biochemistry and Pharmacological Activity of Prostanoids" edited by S M Roberts and F Scheinmann, at page 211; Pergamon Press, 1979) may be used as the agonist;

| SMILES | antagonism of one or more of the actions of TXA2 (in words) (TXA2 [1]) | ED50 ([2]; Rattus norvegicus, intravenous via the jugular vein, n=3, read-out: ED50 (dose necessary to produce 50% of the maximum hypertensive effect)) [µg/kg] | duration of inhibition of the hypertensive effect of U46619 ([2]; about 80% inhibition, oral dose of 0.05 mg/kg) | inhibition of the hypertensive effect of U46619 ([2]; oral dose of 0.05 mg/kg, for more than 1 hour) | Kb [3] [nM] | dose ratio [4] | pA2 (U46619) (TXA2 [5]) |
| --- | --- | --- | --- | --- | --- | --- | --- |
| N#Cc1ccc([C@@H]2OC[C@H](C/C=C\CCC(=O)O)[C@H](c3ccccc3O)O2)s1 (relative stereo) [Example 9, 4(2)-6([2,4,5-cis]-2-[5-cyano-2-thienyl]-4-o-hydroxphenyl-1,2-dioxan-5-yl)hexenoic acid] | especially potent antagonists | – | – | – | – | – | – |
| CCCCC[C@H](O)/C=C/[C@@H]1[C@@H](C/C=C\CCCC(=O)O)[C@H]2CO[C@@H]1C2 [Example U46619, reference compound] | – | ~5 | – | – | – | – | – |
| O=C(O)CC/C=C\C[C@H]1CO[C@@H](c2ccc([N+](=O)[O-])s2)O[C@H]1c1ccccc1O (relative stereo) [Example 4] | especially potent antagonists | – | more than 1 hour | about 80% | 7.54 | > 100 | 8.3 |
| O=C(O)CC/C=C\C[C@H]1CO[C@@H](c2ccsc2)O[C@H]1c1ccccc1O (relative stereo) [Example 8, 4(Z)-6-([2,4,5-cis-]-4-o-hydroxy-phenyl-2-[3-thienyl]-1,3-dioxan-5-yl)hexenoic acid] | especially potent antagonists | – | – | – | 13.8 | 3 | 7.6 |
